Laboratory results from ChEMBL document CHEMBL3232722, “Synthesis and kinase inhibitory activity of new sulfonamide derivatives of pyrazolo[4,3-e][1,2,4]triazines” (Eur J Med Chem, 2014).
Activity calls are given as the source filed them. The calls are words filed in the database; no cut-off is given here.

Columns and labels:
[1] = biological target: T1, Tyrosine-protein kinase ABL1 (Homo sapiens, UniProt P00519); assay: Inhibition of recombinant Abl kinase (unknown origin) expressed in Sf9 cells assessed as residual enzyme activity using GGEAIYAAPFKK as substrate at 10 uM in presence of [gamma33P]ATP
T1 sequence (P00519 whole entry): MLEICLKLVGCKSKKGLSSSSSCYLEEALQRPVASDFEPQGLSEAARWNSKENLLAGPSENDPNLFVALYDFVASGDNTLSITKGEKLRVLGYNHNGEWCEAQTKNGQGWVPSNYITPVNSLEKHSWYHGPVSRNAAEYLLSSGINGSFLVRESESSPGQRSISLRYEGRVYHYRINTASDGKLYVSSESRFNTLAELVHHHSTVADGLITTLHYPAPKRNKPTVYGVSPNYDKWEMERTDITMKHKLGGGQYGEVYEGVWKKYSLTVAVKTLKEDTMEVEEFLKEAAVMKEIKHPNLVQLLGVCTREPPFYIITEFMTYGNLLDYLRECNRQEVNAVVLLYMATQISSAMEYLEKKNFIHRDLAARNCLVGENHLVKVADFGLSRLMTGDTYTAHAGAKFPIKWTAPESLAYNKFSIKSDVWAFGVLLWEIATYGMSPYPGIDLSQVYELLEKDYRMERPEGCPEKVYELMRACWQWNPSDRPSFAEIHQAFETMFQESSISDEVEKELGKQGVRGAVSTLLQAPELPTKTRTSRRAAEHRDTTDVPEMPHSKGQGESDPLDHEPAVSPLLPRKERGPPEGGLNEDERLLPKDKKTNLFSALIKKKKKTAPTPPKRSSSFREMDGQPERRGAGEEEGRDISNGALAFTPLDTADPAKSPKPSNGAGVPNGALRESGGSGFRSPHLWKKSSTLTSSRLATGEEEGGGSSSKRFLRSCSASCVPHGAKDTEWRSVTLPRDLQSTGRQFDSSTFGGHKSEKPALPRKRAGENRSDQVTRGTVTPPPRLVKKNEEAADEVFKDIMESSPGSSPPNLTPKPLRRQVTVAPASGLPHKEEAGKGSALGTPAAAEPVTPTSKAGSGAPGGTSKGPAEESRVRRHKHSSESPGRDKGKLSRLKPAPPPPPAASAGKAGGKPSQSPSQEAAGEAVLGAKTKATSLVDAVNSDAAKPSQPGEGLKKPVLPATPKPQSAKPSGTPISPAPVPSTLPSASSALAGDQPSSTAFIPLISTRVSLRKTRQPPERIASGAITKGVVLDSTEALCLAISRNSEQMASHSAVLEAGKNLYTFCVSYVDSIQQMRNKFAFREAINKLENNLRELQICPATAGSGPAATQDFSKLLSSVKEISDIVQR

[2] = biological target: T1, Tyrosine-protein kinase ABL1; assay: Inhibition of recombinant Abl kinase (unknown origin) expressed in Sf9 cells using GGEAIYAAPFKK as substrate in presence of [gamma33P]ATP
[3] = test system: CCRF-CEM; assay: In vitro antiproliferative activity against human CCRF-CEM cells assessed as decrease in cell viability after 24 hrs by MTT assay; type: functional, cell-based
[4] = test system: MCF7; assay: Cytostatic activity against human MCF7 cells assessed as decrease in [3H]thymidine incorporation into DNA after 24 hrs by liquid scintillation counting analysis; type: functional, cell-based
[5] = biological target: T1, Tyrosine-protein kinase ABL1; assay: Inhibition of recombinant Abl kinase (unknown origin) expressed in Sf9 cells assessed as residual enzyme activity using GGEAIYAAPFKK as substrate at 50 uM in presence of [gamma33P]ATP
[6] = test system: MDA-MB-231; assay: Cytostatic activity against human MDA-MB-231 cells assessed as decrease in [3H]thymidine incorporation into DNA after 24 hrs by liquid scintillation counting analysis; type: functional, cell-based
[7] = test system: HL-60; assay: In vitro antiproliferative activity against human HL60 cells assessed as decrease in cell viability after 24 hrs by MTT assay; type: functional, cell-based; details: for IC50: HL-60, 24 h, read-out: IC50
[8] = test system: BV-173; assay: (§1) In vitro antiproliferative activity against human BV173 cells assessed as decrease in cell viability after 24 hrs by MTT assay; type: functional, cell-based
[9] = as §1; type: functional, cell-based; details: BV-173, 24 h
[10] = biological target: T1, Tyrosine-protein kinase ABL1; assay: Inhibition of recombinant Abl kinase (unknown origin) expressed in Sf9 cells assessed as residual enzyme activity using GGEAIYAAPFKK as substrate at 25 uM in presence of [gamma33P]ATP
[11] = test system: MCF7; assay: In vitro antiproliferative activity against human MCF7 cells assessed as decrease cell viability after 24 hrs by MTT assay; type: functional, cell-based; details: for IC50: MCF7, 24 h
[12] = test system: K562; assay: In vitro antiproliferative activity against human K562 cells assessed as decrease in cell viability after 24 hrs by MTT assay; type: functional, cell-based; details: for IC50: K562, 24 h
[13] = test system: MDA-MB-231; assay: In vitro antiproliferative activity against human MDA-MB-231 cells assessed as decrease in cell vaibility after 24 hrs by MTT assay; type: functional, cell-based; details: for IC50: MDA-MB-231, 24 h
[14] = biological target: Casein kinase II subunit alpha (Homo sapiens, UniProt P68400); assay: Inhibition of CK2alpha1 (unknown origin) using casein as substrate in presence of [gamma33P]ATP
Chain of Casein kinase II subunit alpha (P68400 whole entry): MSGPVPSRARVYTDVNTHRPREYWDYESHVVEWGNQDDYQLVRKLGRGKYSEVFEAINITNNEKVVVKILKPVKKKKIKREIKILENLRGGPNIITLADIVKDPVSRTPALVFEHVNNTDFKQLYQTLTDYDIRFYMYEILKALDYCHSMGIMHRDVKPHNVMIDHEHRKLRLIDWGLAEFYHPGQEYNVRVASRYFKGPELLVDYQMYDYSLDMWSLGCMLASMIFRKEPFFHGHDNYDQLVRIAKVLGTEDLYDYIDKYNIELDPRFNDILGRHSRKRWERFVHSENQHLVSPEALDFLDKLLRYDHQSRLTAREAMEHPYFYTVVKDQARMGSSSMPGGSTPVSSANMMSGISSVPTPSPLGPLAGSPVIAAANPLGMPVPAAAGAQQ

[15] = biological target: Cyclin-dependent kinase 2/cyclin E1 (Homo sapiens, UniProt P24941); assay: Inhibition of CDK2/cyclin E (unknown origin) expressed in Sf9 cells using histone H1 as substrate in presence of [gamma33P]ATP
[16] = biological target: T2, Bcr/Abl fusion protein (Homo sapiens) (UniProt P00519+P11274); assay: Inhibition of Bcr/Abl kinase tyrosine phosphorylation in human K562 cells at 1 to 100 uM after 1 hr by immunoblot analysis; type: cell-based
T2 sequence (P00519 whole entry, looked up, the tested form may be a part): as the sequence (P00519 whole entry) above
T2 sequence (P11274 whole entry, looked up, the tested form may be a part): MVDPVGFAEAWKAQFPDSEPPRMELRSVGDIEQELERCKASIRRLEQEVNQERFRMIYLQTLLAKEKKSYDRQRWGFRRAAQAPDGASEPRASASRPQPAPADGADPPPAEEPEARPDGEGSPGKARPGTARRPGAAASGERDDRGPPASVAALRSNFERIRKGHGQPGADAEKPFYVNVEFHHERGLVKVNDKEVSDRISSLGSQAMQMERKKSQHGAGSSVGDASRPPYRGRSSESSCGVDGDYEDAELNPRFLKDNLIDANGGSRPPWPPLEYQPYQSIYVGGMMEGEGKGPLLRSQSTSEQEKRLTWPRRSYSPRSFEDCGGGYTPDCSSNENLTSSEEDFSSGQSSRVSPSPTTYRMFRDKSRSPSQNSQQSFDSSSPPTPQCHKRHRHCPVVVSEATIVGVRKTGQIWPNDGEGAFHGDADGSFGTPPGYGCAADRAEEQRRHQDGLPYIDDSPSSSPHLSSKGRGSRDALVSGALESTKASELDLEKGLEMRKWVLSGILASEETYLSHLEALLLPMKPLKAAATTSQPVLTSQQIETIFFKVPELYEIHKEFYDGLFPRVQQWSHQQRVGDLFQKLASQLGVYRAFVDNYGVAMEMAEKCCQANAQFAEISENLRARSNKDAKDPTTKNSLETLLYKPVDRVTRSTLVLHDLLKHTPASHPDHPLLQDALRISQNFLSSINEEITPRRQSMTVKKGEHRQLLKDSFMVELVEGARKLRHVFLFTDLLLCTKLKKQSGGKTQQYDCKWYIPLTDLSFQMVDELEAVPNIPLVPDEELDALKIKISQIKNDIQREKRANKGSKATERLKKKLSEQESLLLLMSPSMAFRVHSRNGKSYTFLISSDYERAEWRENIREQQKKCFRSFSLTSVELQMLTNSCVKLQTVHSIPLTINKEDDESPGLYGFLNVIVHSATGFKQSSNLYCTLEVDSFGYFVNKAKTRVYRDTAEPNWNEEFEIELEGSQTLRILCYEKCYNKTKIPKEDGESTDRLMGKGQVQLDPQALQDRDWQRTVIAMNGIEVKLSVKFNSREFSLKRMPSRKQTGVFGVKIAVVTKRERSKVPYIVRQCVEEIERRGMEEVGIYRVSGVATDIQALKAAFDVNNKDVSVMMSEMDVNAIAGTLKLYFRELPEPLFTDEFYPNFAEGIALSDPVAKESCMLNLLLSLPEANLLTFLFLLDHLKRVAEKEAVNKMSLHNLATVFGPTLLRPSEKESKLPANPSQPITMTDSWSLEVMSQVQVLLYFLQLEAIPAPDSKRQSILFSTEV

[17] = biological target: T1, Tyrosine-protein kinase ABL1; assay: Inhibition of Abl kinase tyrosine phosphorylation in human K562 cells at 1 to 100 uM after 1 hr by immunoblot analysis; type: cell-based
[18] = test system: K562; assay: Inhibition of tyrosine phosphorylation of protein with molecular weight between 40 and 60 kDa in human K562 cells at 1 to 100 uM after 1 hr by immunoblot analysis; type: functional, cell-based
[19] = biological target: T2, Bcr/Abl fusion protein (Homo sapiens); assay: Inhibition of Bcr/Abl kinase in human K562 cells assessed as decrease in STAT5 phosphorylation at Tyr694 after 1 hr by immunoblot analysis; type: cell-based
[20] = test system: K562; assay: Induction of apoptosis in human K562 cells assessed as increase in sub-diploid cell population at 10 to 100 uM after 24 hrs by propidium iodide staining based flow cytometry; type: functional

| SMILES | Activity [1] [%] | IC50 [2] [µM] | IC50 [3] [µM] | IC50 [4] [µM] | IC50 [6] [µM] | IC50 [7] [µM] | IC50 [11] [µM] | IC50 [12] [µM] | IC50 [13] [µM] | IC50 [14] [µM] | IC50 [15] [µM] | inhibition [3] | inhibition [4] | inhibition [6] | inhibition [7] | inhibition [8] | IC50 [9] [µM] | inhibition [11] | inhibition [12] | inhibition [13] | further results |
| --- | --- | --- | --- | --- | --- | --- | --- | --- | --- | --- | --- | --- | --- | --- | --- | --- | --- | --- | --- | --- | --- |
| Cc1nn(C)c2nnc(Nc3ccc(S(=O)(=O)NCCO)cc3)nc12 |  | 39 | 49 | > 200 | > 200 | 42 | > 200 | 100 | > 200 | > 50 | > 50 | Dose-dependent effect | Dose-dependent effect | Dose-dependent effect | Dose-dependent effect | Dose-dependent effect | 41 | Dose-dependent effect | Dose-dependent effect | Dose-dependent effect |  |
| Cc1nn(C)c2nnc(Nc3ccc(S(=O)(=O)NCC(O)CO)cc3)nc12 (stereo unspecified) | 81 | 34 | 57 | 130 | 130 | 44 | 200 | 101 | 140 | > 50 | > 50 | Dose-dependent effect | Dose-dependent effect | Dose-dependent effect | Dose-dependent effect | Dose-dependent effect | 42 | Dose-dependent effect | Dose-dependent effect | Dose-dependent effect | Activity [5]: 45%; Activity [10]: 56% |
| Cc1nn(C)c2nnc(Nc3ccc(S(=O)(=O)NCCN)cc3)nc12 |  | 15 | 56 | 85 | 90 | 42 | 126 | 77 | 120 | > 50 | 34.9 | Dose-dependent effect | Dose-dependent effect | Dose-dependent effect | Dose-dependent effect | Dose-dependent effect | 39 | Dose-dependent effect | Dose-dependent effect | Dose-dependent effect | inhibition [16]: inactive; inhibition [17]: inactive; inhibition [18]: inactive; inhibition [19]: Dose-dependent effect; Activity [20]: inactive |
| Cc1nn(C)c2nnc(Nc3ccc(S(=O)(=O)N4CCOCC4)cc3)nc12 | 88 | > 25 | 69 | > 200 | > 200 | 39 | > 200 | 90 | > 200 | > 25 | > 25 | Dose-dependent effect | Dose-dependent effect | Dose-dependent effect | Dose-dependent effect | Dose-dependent effect | 58 | Dose-dependent effect | Dose-dependent effect | Dose-dependent effect | Activity [10]: 80% |
| O=C(O)CCCc1ccc(N(CCCl)CCCl)cc1 [CHLORAMBUCIL] |  |  | 21 | 56 | 49 | 38 | 97 | 84 | 93 |  |  |  |  |  |  |  | 34 |  |  |  |  |

Second part, led by results:

| Activity [1] [%] | IC50 [2] [µM] | IC50 [3] [µM] | IC50 [4] [µM] | IC50 [6] [µM] | IC50 [7] [µM] | IC50 [11] [µM] | IC50 [12] [µM] | IC50 [13] [µM] | IC50 [14] [µM] | IC50 [15] [µM] | SMILES | inhibition [3] | inhibition [4] | inhibition [6] | inhibition [7] | inhibition [8] | IC50 [9] [µM] | inhibition [11] | inhibition [12] | inhibition [13] | further results |
| --- | --- | --- | --- | --- | --- | --- | --- | --- | --- | --- | --- | --- | --- | --- | --- | --- | --- | --- | --- | --- | --- |
| 100 | > 50 | 30 | > 200 | > 200 | 56 | > 200 | 102 | > 200 | > 50 | > 50 | Cc1nn(C)c2nnc(Nc3ccc(S(=O)(=O)N4CCCC4)cc3)nc12 | Dose-dependent effect | Dose-dependent effect | Dose-dependent effect | Dose-dependent effect | Dose-dependent effect | 47 | Dose-dependent effect | Dose-dependent effect | Dose-dependent effect | Activity [5]: 90%; Activity [10]: 100% |
| 80 | > 50 | 54 | > 200 | > 200 | 40 | > 200 | > 200 | > 200 | > 50 | > 50 | Cc1nn(C)c2nnc(Nc3ccc(S(=O)(=O)NC(CO)C(C)C)cc3)nc12 (stereo unspecified) | Dose-dependent effect | Dose-dependent effect | Dose-dependent effect | Dose-dependent effect | Dose-dependent effect | 58 | Dose-dependent effect | Dose-dependent effect | Dose-dependent effect |  |
| 95 | 33 | 50 | > 200 | > 200 | 58 | > 200 | 106 | > 200 | > 50 | > 50 | Cc1nn(C)c2nnc(Nc3ccc(S(N)(=O)=O)cc3)nc12 | Dose-dependent effect | Dose-dependent effect | Dose-dependent effect | Dose-dependent effect | Dose-dependent effect | 45 | Dose-dependent effect | Dose-dependent effect | Dose-dependent effect | Activity [5]: 33%; Activity [10]: 63% |
| 60 | > 50 | 36 | 87 | 80 | 49 | 102 | 66 | 99 | > 50 | > 50 | Cc1nn(C)c2nnc(Nc3ccc(S(=O)(=O)N4CCN(C)CC4)cc3)nc12 | Dose-dependent effect | Dose-dependent effect | Dose-dependent effect | Dose-dependent effect | Dose-dependent effect | 40 | Dose-dependent effect | Dose-dependent effect | Dose-dependent effect | Activity [5]: 51%; Activity [10]: 55% |
|  | 20 | 64 | 99 | 120 | 41 | 146 | 96 | 125 | > 50 | > 50 | Cc1nn(C)c2nnc(Nc3ccc(S(=O)(=O)NCCN4CCOCC4)cc3)nc12 | Dose-dependent effect | Dose-dependent effect | Dose-dependent effect | Dose-dependent effect | Dose-dependent effect | 39 | Dose-dependent effect | Dose-dependent effect | Dose-dependent effect |  |
|  |  |  |  |  |  |  |  |  |  | 1.8 | O=C(O)c1ccc2c(c1)nc(Nc1cccc(Cl)c1)c1ccncc12 [SILMITASERTIB] |  |  |  |  |  |  |  |  |  |  |
| 100 | > 25 | 30 | 150 | 135 | 24 | 200 | 98 | 140 | > 25 | > 25 | Cc1nn(C)c2nnc(Nc3ccc(S(=O)(=O)N4CCCCC4)cc3)nc12 | Dose-dependent effect | Dose-dependent effect | Dose-dependent effect | Dose-dependent effect | Dose-dependent effect | 36 | Dose-dependent effect | Dose-dependent effect | Dose-dependent effect | Activity [10]: 98% |
